{
  "source": "patent US6641797B2",
  "about": "“Perfluoroalkyl-containing complexes with sugar radicals, process for their production and their use” (Schering Aktiengesellschaft, priority 2000, dated 2003)",
  "origin": "cited, not measured here",
  "key": {"[1]": {"settings": "in vivo; cited from earlier work"}, "[2]": {"system": "necrotic portion of a tumor", "settings": "in vivo; cited from earlier work"}, "[3]": {"settings": "39° C., 0.47 T; cited from earlier work"}, "[4]": {"settings": "39° C., 0.47 T; cited from earlier work", "remark": "listed apart in the source"}, "infarcted tissue": {"system": "infarcted tissue", "settings": "cited from earlier work"}},
  "note": "Where “and” joins values, the source holds several entries; their conditions need not be identical. Equal entries are not always repeated.",
  "data": [
    {"molecule": "O=S(=O)([O-])c1ccc(-c2c3nc(c(-c4ccc(S(=O)(=O)[O-])cc4)c4ccc([n-]4)c(-c4ccc(S(=O)(=O)[O-])cc4)c4nc(c(-c5ccc(S(=O)(=O)[O-])cc5)c5ccc2[n-]5)C=C4)C=C3)cc1.[Mn+3]", "note": "[Mn-TPPS, manganese-5,10,15,20-tetrakis(4-sulfonatophenyl)-porphyrin]", "values": [
      {"measurement": "LD50", "setting": "[1]", "value": "approximately 0.5 mmol/kg"},
      {"measurement": "accumulation in the necrotic portion of a tumor", "setting": "[2]", "value": "selectively accumulates in the necrotic portion of a tumor"}
    ]},
    {"molecule": "CNC[C@H](O)[C@@H](O)[C@H](O)[C@H](O)CO.O=C([O-])CN1CCN(CC(=O)[O-])CCN(CC(=O)O)CCN(CC(=O)[O-])CC1.[Gd+3]", "note": "[DOTAREM^(R)]", "values": [
      {"measurement": "T^1-Relaxivity in Water", "setting": "[3]", "value": 3.5, "unit": "L/mmol/s"},
      {"measurement": "T^1-Relaxivity in Plasma", "setting": "[4]", "value": 4.3, "unit": "L/mmol/s"}
    ]},
    {"molecule": "CNC(=O)CN(CCN(CCN(CC(=O)[O-])CC(=O)NC)CC(=O)[O-])CC(=O)[O-].[Gd+3]", "note": "[OMNISCAN^(R)]", "values": [
      {"measurement": "T^1-Relaxivity in Water", "setting": "[3]", "value": 3.8, "unit": "L/mmol/s"},
      {"measurement": "T^1-Relaxivity in Plasma", "setting": "[4]", "value": 4.4, "unit": "L/mmol/s"}
    ]},
    {"molecule": "gadolinium-mesoporphyrin [Gd-MP]", "values": [
      {"measurement": "ratio of the signal intensities in MRI, infarcted in comparison to healthy tissue", "setting": "infarcted tissue; kidney and myocardium", "value": "2.10 and 2.19"},
      {"measurement": "metal content of infarcted tissue versus non-infarcted, myocardium", "setting": "infarcted tissue; myocardium (Example 1 of WO 95/31219)", "value": "nine times as large"}
    ]},
    {"molecule": "C[n+]1ccc(-c2c3nc(c(-c4cc[n+](C)cc4)c4ccc([n-]4)c(-c4cc[n+](C)cc4)c4nc(c(-c5cc[n+](C)cc5)c5ccc2[n-]5)C=C4)C=C3)cc1.[111In+3]", "note": "[TMPyP, ^111In-5,10,15,20-tetrakis-(4-N-methyl-pyridinium)-porphyrin]", "values": [
      {"measurement": "accumulation in the necrotic portion of a tumor", "setting": "[2]", "value": "does not accumulate in the necrotic portion"}
    ]},
    {"molecule": "CNC[C@H](O)[C@@H](O)[C@H](O)[C@H](O)CO.CNC[C@H](O)[C@@H](O)[C@H](O)[C@H](O)CO.O=C([O-])CN(CCN(CC(=O)[O-])CC(=O)O)CCN(CC(=O)[O-])CC(=O)O.[Gd+3]", "note": "[MAGNEVIST^(R), Gd-DTPA]", "values": [
      {"measurement": "T^1-Relaxivity in Water", "setting": "[3]", "value": 3.8, "unit": "L/mmol/s"},
      {"measurement": "T^1-Relaxivity in Plasma", "setting": "[4]", "value": 4.8, "unit": "L/mmol/s"}
    ]}
  ]
}
